Source: patent US20230099089A1, “ANTIVIRAL SUBSTANCES WITH A WIDE SPECTRUM OF ACTIVITY” (Universitaet zu Luebeck Koerperschaft des Oeffentlichen …, priority 2020, published 2023)
Read-outs that look alike come from different tables or passages of the source.

Tests used:
CVB3 = test: microbe, parasite or virus in culture; type: cell-based, coxsackievirus B3; details: Enterovirus B, CVB3, read-out: EC50 CVB3
SARS-CoV = test: microbe, parasite or virus in culture; type: cell-based; details: Severe acute respiratory syndrome coronavirus, Vero C1008, read-out: EC50 SARS-CoV
MERS-CoV = test: microbe, parasite or virus in culture; type: cell-based, MERS coronavirus; details: Middle East respiratory syndrome-related coronavirus
plasma protein binding = type: in vitro ADME
[1] = pharmacokinetic study 2 mg/kg i.v.; type: in vivo; details: for CO / MRI / V / AUC(0-t) / clearance / half-life: 2 mg/kg i.v.; for AUC(0-t) / clearance / half-life: in vivo, iv
From the text: The bioavailability of the lead compound DZLO8 was also characterized in detail in an external CRO- study and the results verified.

HCoV-229E = test: microbe, parasite or virus in culture; type: cell-based; details: Human coronavirus 229E, Huh-7, read-out: EC50 HCoV-229E
EV-A71 = test: microbe, parasite or virus in culture; type: cell-based; details: Enterovirus A, EVA71, read-out: EC50 EV-A71
MERS-CoV Mpro = MERS-CoV Mpro (Middle East respiratory syndrome-related coronavirus, UniProt K9N7C7); type: biochemical
Chain of MERS-CoV Mpro (K9N7C7 3248-3553 limits assumed): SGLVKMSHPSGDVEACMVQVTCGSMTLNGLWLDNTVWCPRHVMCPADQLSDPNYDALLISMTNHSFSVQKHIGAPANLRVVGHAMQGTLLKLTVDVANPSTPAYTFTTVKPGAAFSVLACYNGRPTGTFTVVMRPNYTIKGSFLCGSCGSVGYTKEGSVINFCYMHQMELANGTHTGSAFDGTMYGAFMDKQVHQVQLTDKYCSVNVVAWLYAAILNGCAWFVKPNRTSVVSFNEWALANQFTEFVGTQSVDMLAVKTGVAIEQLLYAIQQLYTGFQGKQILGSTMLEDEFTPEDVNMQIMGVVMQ

[2] = metabolic stability in mouse microsomes; details: after 30 minutes
[3] = metabolic stability in human microsomes; details: after 30 minutes
[4] = pharmacokinetic study after subcutaneous injection in CD-1 mice
[5] = CD-1 mice, 20 mg/kg subcutaneous
[6] = CD-1 mice, 20 mg/kg subcutaneous, after 24 hours

O=C(/C=C/c1ccccc1)N[C@@H](CC1CCCCC1)C(=O)N[C@@H](C[C@@H]1CCNC1=O)C(=O)C(=O)NCc1ccccc1 [DZL08, reference compound]
EC50 (CVB3): 2800 nM
EC50 (SARS-CoV): 2100 nM
EC50 (MERS-CoV; Huh-7, read-out: EC50 MERS-CoV): 0.4 nM
EC50 (MERS-CoV; Vero, read-out: EC50 MERS-CoV): 5000 nM
fraction unbound (plasma protein binding; read-out: plasma protein binding): 0.01
CO [1]: 278.34 ± 138.5 ng/mL
MRI [1]: 0.48 ± 0.0 h
V [1]: 8.20 ± 4.1 L/kg
AUC(0-t) [1]: 135 ± 74.6 ng·h/mL
clearance [1]: 292 ± 162 mL/min/kg
half-life [1]: 19.8 min
EC50 (HCoV-229E): 1800 nM
EC50 (EV-A71): 3700 nM

CC(C)(C)OC(=O)Nc1cccn([C@@H](CC2CC2)C(=O)N[C@@H](C[C@@H]2CCNC2=O)C(=O)C(=O)NCc2ccccc2)c1=O [RHCDS1c]
IC50 (MERS-CoV Mpro): 580 nM

CC(C)(C)OC(=O)Nc1cccn([C@@H](CC2CCCCC2)C(=O)N[C@@H](C[C@@H]2CCNC2=O)C(=O)C(=O)NC2CC2)c1=O [RHCDS1e]
compound remained metabolically stable [2]: 80%
toxicity in mice (toxicity in mice): No evidence of toxicity
compound remained metabolically stable [3]: 60%
fraction unbound (plasma protein binding): 0.06
CO [1]: 461.44 ± 345.0 ng/mL
MRI [1]: 0.47 ± 0.1 h
V [1]: 6.73 ± 0.4 L/kg
AUC(0-t) [1]: 193 ± 59 ng·h/mL
clearance [1]: 178 ± 51.2 mL/min/kg
half-life [1]: 27 ± 6 min
improved half-life compared to the lead compound ([1]; versus DZL08): 50%
MRT ([4]; CD-1, mouse, in vivo, sc, 20 mg/kg): ~95.4 min
Cmax [4, 5]: 334.50 ng/mL
time excreted in urine [4, 5]: up to 24 hours
time the compound remained in plasma [4, 5]: about 4 hours
concentration in broncheoalveolar washing fluid (BALF) [4, 6]: 52.7 ng/mL
concentration in the lung [4, 6]: 135 ng per g tissue
